From PMC8636514, “Therapeutic potential of TRPM8 antagonists in prostate cancer” (Scientific Reports, 2021)
Where two headings read alike, the source gives them in different places. Each block holds one compound with its values, some of them ahead of it.

What was measured:
human TRPM8 [1] = target: T1, human TRPM8 (Homo sapiens, UniProt Q7Z2W7); assay: Patch-clamp assay on TRPM8 channels (HEK-293/TRPM8 cells, menthol-evoked currents); assay type: cell-based; conditions: for inhibitory effect on menthol-evoked TRPM8 currents: dependence on concentration
T1 construct: expressed in transfected cells; host or cells: HEK-293/TRPM8 exon1 K3 cells
Protocol: Patch clamp experiments for compounds 4, 5 and 9 were done as described. HEK-293/TRPM8 exon 1 cells were seeded 3 or 4 days before experiment at a concentration of 4 and 2.5 million cells, respectively, onto a T225 flask. Before each experiment, cells were washed two times with D-PBS without Ca^2+/Mg^2+ (Euroclone, Milan, Italy) and trypsinized with trypsin−EDTA (Sigma-Aldrich; diluted 1/10). Cells were suspended in 25 mL of EX-CELL ACF CHO medium (Sigma-Aldrich, Milan, Italy), 0.625 mL of HEPES (Lonza, Walkersville, USA), 0.25 mL of 100 × penicillin/streptomycin (Lonza, Walkersville, USA), 0.1 mL of soybean trypsin inhibitor 10 mg/mL (Sigma-Aldrich), and placed on the automated patch-clamp platform (QPatch 16X, Sophion Bioscience, Ballerup, Denmark). A stock solution of L-Menthol (1 M, 100% DMSO), used as reference agonist, was freshly prepared. A diluted stock of 300 mM was prepared from the 1 M stock in 100% DMSO, and a final dilution was obtained using the extracellular solution to give a working concentration of 300 μM (1:1000, 0.1% final DMSO concentration). Stock solutions of the testing compounds (10 mM; 100% DMSO; stored at − 20 °C) were freshly prepared, as well. Further dilution of these stock solutions to a final concentration of 300 μM was performed from the 10 mM stock in 100% DMSO, and the working dilutions were performed just before the experiments using the extracellular solution containing 300 μM menthol. The highest concentration tested was 300 nM, with serial dilutions (1:10). DMSO was balanced to keep it constant throughout all the solutions in the same experiment (0.2% final DMSO concentration). Standard whole-cell voltage clamp experiments were performed at room temperature using the multihole technology. For the voltage clamp experiments on human TRPM8, data were sampled at 2 kHz. After establishment of the seal and the passage in the whole cell configuration, the cells were subjected to a voltage ramp (20 ms step at − 60 mV; 100 ms ramp − 60/ + 100 mV; 20 ms step at + 100 mV; return to − 60 mV) every 4 s. The antagonistic effect on human TRPM8 current of target compounds was evaluated after application of the agonist (menthol, 300 μM), in the absence or presence of increasing concentrations of the compound under investigation. Outward current evoked by the voltage ramp, measured in the step at + 100 mV were measured. The intracellular solution contained (mM) 135 CsCl, 10 BAPTA, 10 HEPES, 4 Na2ATP (pH 7.2 with CsOH). The extracellular solution contained (mM) 145 NaCl, 4 KCl, 1 MgCl2, 2 CaCl2, 10 HEPES, 10 glucose (pH 7.4 with NaOH). TRPM8 modulation by final compounds 3 and 6 has been previously determined by patch clamp measurements[29],[30].

LNCaP cells [2] = assay: DNA synthesis (BrdU incorporation) in LNCaP cells; assay type: cell-based, human; conditions: 10 nM R1881, compound 1 μM
Protocol: […] Cells were fixed, permeabilized, washed and the BrdU incorporation was analysed as reported. Nuclei were stained with Hoechst and cells on coverslips were scored by IF microscopy, using a DMLB Leica (Leica) fluorescent microscope, equipped with HCX PL Apo 63 × oil objective. Different fields from each coverslip were analyzed and BrdU incorporation was calculated by the formula: percentage of BrdU-positive cells = (No. of BrdU-positive cells/No. of total cells) × 100. Data in the graphs derive from at least 1000 scored cells for each coverslip. Representative images were captured using DC480 camera (Leica) and acquired using Leica Suite software. They are representative of three different experiments.

C4-2B cells = assay: DNA synthesis (BrdU incorporation) in C4-2B cells; assay type: cell-based, human; conditions: cycling cells, 18 h, 10 μM
Protocol: Cells on coverslips were pulsed in vivo with BrdU (Sigma-Aldrich; at 100 μM, final concentration) and left unchallenged or challenged with 10 nM R1881 for 18 h, in the absence or presence of the indicated compounds. Cells were fixed, permeabilized, washed and the BrdU incorporation was analysed as reported. Nuclei were stained with Hoechst and cells on coverslips were scored by IF microscopy, using a DMLB Leica (Leica) fluorescent microscope, equipped with HCX PL Apo 63 × oil objective. Different fields from each coverslip were analyzed and BrdU incorporation was calculated by the formula: percentage of BrdU-positive cells = (No. of BrdU-positive cells/No. of total cells) × 100. Data in the graphs derive from at least 1000 scored cells for each coverslip. Representative images were captured using DC480 camera (Leica) and acquired using Leica Suite software. They are representative of three different experiments.

PSA = PSA secretion (ELISA) from LNCaP cells; assay type: cell-based, human; conditions: enzalutamide 10 μM
Protocol: It was done in culture medium using the PSA ELISA kit (Abnova-Taiwan Corporation, Taiwan), according to the manufacturer’s instructions. Released PSA was analyzed at 450 nm using the EnSpire Multimode Plate Reader (Perkin-Elmer, U.S.A.).

[3] = system: FAK, paxillin, ERK, RSK and Src tyrosine kinase; assay: Western blot of androgen-induced rapid actions in LNCaP cells (Fig. 6c); assay type: cell-based, human; conditions: 10 nM R1881, 10 min, enzalutamide 10 μM
Text: (§1) All performed as reported. The mouse monoclonal anti-AR (441; Santa Cruz) antibody was used in Co-Ip or WB approaches. TRPM8 was detected using the rabbit polyclonal anti-TRPM8 (NBP1-97311; Novus Biological). […] The rabbit polyclonal anti-ERK (C-14; Santa Cruz), antibody was used to detect total ERK. FAK and P-Tyr397 FAK were detected using the mouse monoclonal anti-FAK (Clone 77/610077 BD Transduction Laboratories) or anti P-Tyr397 FAK (Clone 14/611722; BD Transduction Laboratories) antibodies, respectively. P-Tyr118 paxillin and total paxillin were detected using the rabbit polyclonal anti-P-Y118 (#2541, Cell Signaling) or the mouse monoclonal anti-paxillin (clone 349; BD Biosciences) antibodies, respectively. […] P-Tyr 416 Src and Src were detected using the rabbit monoclonal anti P-Tyr 416 Src (#6943; Cell Signaling) or the mouse monoclonal anti Src (Calbiochem) antibodies, respectively. ERα and ERβ were detected using the rabbit polyclonal anti-ERα (543; Santa Cruz) or anti-ERβ (Upstate Biotechnology, U.S.A.) antibodies. Cyclin D1, p27 and Cdk4 were stained using the mouse monoclonal anti-cyclin D1 (clone AM29; from Zymed Laboratories Inc.), the rabbit polyclonal anti-p27 (C-19; Santa Cruz) or anti Cdk-4 (c-22; Santa Cruz) antibodies, respectively. The mouse monoclonal anti-tubulin (Sigma-Aldrich) antibody was used to detect tubulin. The ECL system (GE Healthcare) was employed to reveal immune-reactive proteins. Densitometric analysis of WB was performed by using Image J Software (https://imagej.nih.gov/ij).

AR/TRPM8 complex = target: T2, AR/TRPM8 complex (Homo sapiens, UniProt Q7Z2W7); assay: Co-IP of AR with TRPM8 in LNCaP cells; assay type: cell-based; conditions: for AR, Average (n=3) / TRPM8, Average (n=3): Fig 6e, R1881 + enz 10 μM
T2 construct: We here dissected an endogenous non-genomic mechanism of the TRPM8 channel regulation by androgens in PC cells; endogenous in cells; host or cells: LNCaP cells
Text: as §1

AR = assay: Western blot of AR in LNCaP lysate proteins; assay type: cell-based, human; conditions: Fig 6e, R1881 + enz 10 μM
Text: as §1

TRPM8 = assay: Western blot of TRPM8 in LNCaP lysate proteins; assay type: cell-based, human; conditions: Fig 6e, R1881 + enz 10 μM
Text: as §1

human TRPM8 [4] = target: T1, human TRPM8; conditions: maximal currents at 5 µM compared to L-menthol 100 µM; cited from earlier work
LNCaP cells [5] = system: LNCaP cells; parameters: method as in PMID 33288740; conditions: cited from earlier work
[6] = fourth group of list (probably IP anti-AR)

T1 sequence (Q7Z2W7 whole entry): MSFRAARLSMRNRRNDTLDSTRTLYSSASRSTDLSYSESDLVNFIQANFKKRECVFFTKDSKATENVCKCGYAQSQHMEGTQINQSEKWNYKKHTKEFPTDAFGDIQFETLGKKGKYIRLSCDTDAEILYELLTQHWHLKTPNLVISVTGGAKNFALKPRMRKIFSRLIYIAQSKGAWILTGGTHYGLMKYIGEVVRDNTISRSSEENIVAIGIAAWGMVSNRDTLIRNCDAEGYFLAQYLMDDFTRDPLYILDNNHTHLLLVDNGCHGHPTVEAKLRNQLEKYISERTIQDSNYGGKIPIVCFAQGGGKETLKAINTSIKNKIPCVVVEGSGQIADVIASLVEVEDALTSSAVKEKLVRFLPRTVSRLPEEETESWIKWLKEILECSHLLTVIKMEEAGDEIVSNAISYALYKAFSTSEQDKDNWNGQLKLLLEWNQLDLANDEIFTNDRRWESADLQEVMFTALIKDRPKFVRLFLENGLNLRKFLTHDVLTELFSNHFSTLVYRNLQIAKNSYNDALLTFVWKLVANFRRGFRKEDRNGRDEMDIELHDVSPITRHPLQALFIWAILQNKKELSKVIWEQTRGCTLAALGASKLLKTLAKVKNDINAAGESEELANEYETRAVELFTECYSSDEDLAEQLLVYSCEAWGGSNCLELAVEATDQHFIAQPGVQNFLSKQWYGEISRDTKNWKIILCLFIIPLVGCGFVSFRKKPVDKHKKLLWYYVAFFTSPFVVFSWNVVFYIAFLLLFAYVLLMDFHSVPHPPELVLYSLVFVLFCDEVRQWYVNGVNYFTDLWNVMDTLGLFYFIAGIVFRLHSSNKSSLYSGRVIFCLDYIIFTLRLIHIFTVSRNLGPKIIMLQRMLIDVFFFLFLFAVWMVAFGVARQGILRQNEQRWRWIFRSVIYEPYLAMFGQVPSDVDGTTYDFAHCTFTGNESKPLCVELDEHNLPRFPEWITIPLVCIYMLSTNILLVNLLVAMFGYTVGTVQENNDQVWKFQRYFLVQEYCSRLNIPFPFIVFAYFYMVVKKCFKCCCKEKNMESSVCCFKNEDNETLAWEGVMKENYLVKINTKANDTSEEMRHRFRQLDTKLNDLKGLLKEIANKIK
T2 sequence (Q7Z2W7 whole entry, one chain of several): as the sequence (Q7Z2W7 whole entry) above

SMILES: O=[N+]([O-])c1ccc(Sc2[nH]c3ccccc3c2CCNCc2ccc(Oc3ccccc3)cc2)c([N+](=O)[O-])c1 [Compound 5]
IC50 (human TRPM8 [1]; 300 µM menthol-evoked currents, read-out: Potency IC50): 340 ± 26 nM
IC50 (human TRPM8 [1]; TRPM8 antagonist, menthol-evoked currents, one range for both compounds, read-out: IC50): 204 to 340 nM
inhibitory effect on menthol-evoked TRPM8 currents (human TRPM8 [1]): concentration-dependent

IC50 (human TRPM8 [1]; TRPM8 antagonist, read-out: IC50): 5000 nM
inhibitory effect on menthol-evoked TRPM8 currents (human TRPM8 [1]): concentration-dependent
SMILES: Cn1cc(CNCCc2ccc(-c3ccccc3)cc2)c2cc(CNc3ccc(F)cc3)ccc21 [Compound 9]
inhibitory effect on R1881-stimulated DNA synthesis, compared with 3 and 5 (LNCaP cells [2]): stronger

androgen-induced AR/TRPM8 complex assembly (AR/TRPM8 complex; 10 nM R1881, 10 min, enzalutamide 10 μM): perturbed
AR, Average (n=3) (AR/TRPM8 complex; [6]): 1,1
TRPM8, Average (n=3) (AR/TRPM8 complex; [6]): 0,3
AR, Average (n=3) (AR/TRPM8 complex; second group of list): 0,1
TRPM8, Average (n=3) (AR/TRPM8 complex; second group of list): 0,1
AR, Average (n=3) (AR/TRPM8 complex; third group of list): 1
TRPM8, Average (n=3) (AR/TRPM8 complex; third group of list): 0
SMILES: CNC(=O)c1ccc(N2C(=S)N(c3ccc(C#N)c(C(F)(F)F)c3)C(=O)C2(C)C)cc1F [Enzalutamide]
BrdU incorporation (C4-2B cells): did not observe any effect
androgen-induced PSA secretion (PSA; R1881, 48 h): strongly inhibited
PSA secretion when used alone (PSA; no R1881): Neither the two TRPM8 antagonists, nor enzalutamide did modify such response
androgen-elicited activation of FAK, paxillin, ERK, RSK and Src [3]: impaired at similar extent
AR, Average (n=3) (AR): 1,1
TRPM8, Average (n=3) (TRPM8): 1,1

SMILES: c1ccc(Oc2ccc(CNCCc3c[nH]c4ccccc34)cc2)cc1 [Compound 3]
% Efficacy (human TRPM8 [4]): 100.0 ±8.4%

SMILES: COc1ccc(NC(=O)[C@@H]2C[C@H](C)CC[C@H]2C(C)C)cc1 [WS-12]
viability of LNCaP cells (LNCaP cells [5]): slightly modify
